Molecular target: T1, glucan synthase (GS) (Candida albicans, UniProt O13428)
T1 construct: Extraction of GS activity from membranes was performed at a protein concentration of 5 mg/mL in extraction buffer; endogenous in cells; host or cells: Candida albicans MY1055 (membrane fraction, detergent extraction, product entrapment)
Test: Glucan synthase inhibition (polymerization assay, 96-well)
Format: biochemical
Details: glucan synthase prepared from Candida albicans MY1055; 60 min incubation at 22° C.; read-out: Candida Albicans GS IC50 (ng/mL) (converted)
Method in brief: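 Partially purified membrane glucan synthase from C. albicans MY1055, 60 min at 22° C with 0.5 mM 3H-UDPG, 25 μM GTP-γ-S, pH 7.5 HEPES, 25 mM KF. TCA-precipitated glucan filtered and scintillation counted; IC50 (ng/mL) from sigmoidal fit of duplicates over 3-fold dilutions.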

T1 sequence (O13428 1-1897): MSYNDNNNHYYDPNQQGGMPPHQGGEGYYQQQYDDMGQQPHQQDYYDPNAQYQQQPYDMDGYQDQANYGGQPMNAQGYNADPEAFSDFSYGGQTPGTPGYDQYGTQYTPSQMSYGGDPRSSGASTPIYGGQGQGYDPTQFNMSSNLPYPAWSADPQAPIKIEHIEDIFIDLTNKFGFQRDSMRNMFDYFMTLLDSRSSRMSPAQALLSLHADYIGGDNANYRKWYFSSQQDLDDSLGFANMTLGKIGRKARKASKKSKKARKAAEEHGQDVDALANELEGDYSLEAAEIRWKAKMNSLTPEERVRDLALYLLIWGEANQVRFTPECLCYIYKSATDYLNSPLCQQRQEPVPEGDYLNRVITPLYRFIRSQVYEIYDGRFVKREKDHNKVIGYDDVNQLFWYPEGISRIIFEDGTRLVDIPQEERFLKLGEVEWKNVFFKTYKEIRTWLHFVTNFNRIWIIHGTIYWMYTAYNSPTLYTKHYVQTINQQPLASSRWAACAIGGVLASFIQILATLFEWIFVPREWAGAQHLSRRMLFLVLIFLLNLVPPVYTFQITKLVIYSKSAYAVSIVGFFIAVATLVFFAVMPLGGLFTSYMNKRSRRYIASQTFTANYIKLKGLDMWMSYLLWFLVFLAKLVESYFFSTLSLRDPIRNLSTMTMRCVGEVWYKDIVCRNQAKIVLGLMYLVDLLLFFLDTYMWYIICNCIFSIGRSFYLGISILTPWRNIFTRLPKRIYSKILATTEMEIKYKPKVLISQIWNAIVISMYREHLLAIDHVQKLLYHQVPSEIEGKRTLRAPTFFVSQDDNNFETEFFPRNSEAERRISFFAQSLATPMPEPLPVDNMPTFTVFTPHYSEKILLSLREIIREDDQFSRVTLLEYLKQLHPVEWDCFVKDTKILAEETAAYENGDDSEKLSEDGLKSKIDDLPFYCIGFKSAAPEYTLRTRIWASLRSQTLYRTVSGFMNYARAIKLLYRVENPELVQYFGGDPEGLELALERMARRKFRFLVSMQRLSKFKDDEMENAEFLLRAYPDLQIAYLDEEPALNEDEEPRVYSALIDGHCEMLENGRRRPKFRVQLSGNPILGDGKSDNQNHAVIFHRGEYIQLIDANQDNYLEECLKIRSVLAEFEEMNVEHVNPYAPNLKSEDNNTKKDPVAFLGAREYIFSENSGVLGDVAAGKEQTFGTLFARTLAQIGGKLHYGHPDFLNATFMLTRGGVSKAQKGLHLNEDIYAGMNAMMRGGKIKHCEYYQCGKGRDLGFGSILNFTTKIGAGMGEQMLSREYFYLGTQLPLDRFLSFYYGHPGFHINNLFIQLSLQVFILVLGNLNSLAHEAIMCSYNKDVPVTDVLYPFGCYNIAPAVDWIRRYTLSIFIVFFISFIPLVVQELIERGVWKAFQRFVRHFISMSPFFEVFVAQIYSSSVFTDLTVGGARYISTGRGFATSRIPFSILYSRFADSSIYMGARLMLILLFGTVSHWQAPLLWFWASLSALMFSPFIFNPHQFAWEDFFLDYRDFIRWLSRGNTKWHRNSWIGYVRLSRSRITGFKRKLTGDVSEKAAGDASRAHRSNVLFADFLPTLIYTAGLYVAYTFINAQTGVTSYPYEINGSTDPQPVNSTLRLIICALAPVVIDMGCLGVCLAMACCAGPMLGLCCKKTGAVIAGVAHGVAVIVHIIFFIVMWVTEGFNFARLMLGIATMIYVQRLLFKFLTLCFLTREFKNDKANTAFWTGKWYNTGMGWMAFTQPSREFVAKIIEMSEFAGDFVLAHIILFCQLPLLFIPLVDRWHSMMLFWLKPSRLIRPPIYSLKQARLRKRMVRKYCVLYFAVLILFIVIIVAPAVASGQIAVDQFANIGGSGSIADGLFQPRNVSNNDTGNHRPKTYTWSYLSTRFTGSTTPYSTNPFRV
T1 sequence (O42825 1-195 partner limits assumed): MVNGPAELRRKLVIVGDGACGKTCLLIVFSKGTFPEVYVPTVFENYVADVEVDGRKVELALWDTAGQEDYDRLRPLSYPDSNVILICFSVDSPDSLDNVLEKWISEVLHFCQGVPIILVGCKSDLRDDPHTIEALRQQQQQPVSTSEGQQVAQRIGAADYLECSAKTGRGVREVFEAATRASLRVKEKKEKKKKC

Row | SMILES | IC50 [nM]
1 | CC(C)[C@@H](C)[C@@]1(C)CC[C@]2(C)[C@H]3CC[C@@H]4[C@@]5(COC[C@@]4(C)[C@@H](OC[C@@H](C(C)C)N(C)C)[C@H](n4nnc(N)n4)C5)C3=CC[C@@]2(C)[C@@H]1C(=O)O [Example 80, (1S,4aR,6aS,7R,8R,10aR,10bR,12aR,14R,15R)-14-(5-amino-2H-tetrazol-2-yl)-15-[[(2R)-2-(dimethylamino)-3-methylbutyl]oxy]-8-[(1R)-1,2-dimethylpropyl]-1,6,6a,7,8,9,10,10a,10b,11,12,12a-dodecahydro-1,6a,8,10a-tetramethyl-4H-1,4a-propano-2H-phenanthro[1,2-c]pyran-7-carboxylic acid] | 5.98
2 | CC(C)[C@@H](C)[C@@]1(C)CC[C@]2(C)[C@H]3CC[C@@H]4[C@@]5(COC[C@@]4(C)[C@@H](OC[C@@H](C4CC4)N(C)C)[C@H](n4nnc(N)n4)C5)C3=CC[C@@]2(C)[C@@H]1C(=O)O [Example 83, (1S,4aR,6aS,7R,8R,10aR,10bR,12aR,14R,15R)-14-(5-amino-2H-tetrazol-2-yl)-15-[(2R)-2-cyclopropyl-2-(dimethylamino)ethoxy]-8-[(1R)-1,2-dimethylpropyl]-1,6,6a,7,8,9,10,10a,10b,11,12,12a-dodecahydro-1,6a,8,10a-tetramethyl-4H-1,4a-propano-2H-phenanthro[1,2-c]pyran-7-carboxylic acid] | 16.5
3 | CC(C)[C@@H](C)[C@@]1(C)CC[C@]2(C)[C@H]3CC[C@@H]4[C@@]5(COC[C@@]4(C)[C@@H](OC[C@H](N)c4ccccc4)[C@H](n4nnc(N)n4)C5)C3=CC[C@@]2(C)[C@@H]1C(=O)O [Example 88, (1S,4aR,6aS,7R,8R,10aR,10bR,12aR,14R,15R)-14-(5-amino-2H-tetrazol-2-yl)-15-[(2R)-2-amino-2-phenylethoxy]-8-[(1R)-1,2-dimethylpropyl]-1,6,6a,7,8,9,10,10a,10b,11,12,12a-dodecahydro-1,6a,8,10a-tetramethyl-4H-1,4a-propano-2H-phenanthro[1,2-c]pyran-7-carboxylic acid] | 26.7
4 | CC(C)[C@H](N)CO[C@H]1[C@H](n2nnc(N)n2)C[C@@]23COC[C@]1(C)[C@@H]2CC[C@H]1C3=CC[C@@]2(C)[C@H](C(=O)O)[C@@](C)([C@H](C)C(C)C)CC[C@]12C [Example 93, (1S,4aR,6aS,7R,8R,10aR,10bR,12aR,14R,15R)-14-(5-amino-2H-tetrazol-2-yl)-15-[[(2S)-2-amino-3-methylbutyl]oxy]-8-[(1R)-1,2-dimethylpropyl]-1,6,6a,7,8,9,10,10a,10b,11,12,12a-dodecahydro-1,6a,8,10a-tetramethyl-4H-1,4a-propano-2H-phenanthro[1,2-c]pyran-7-carboxylic acid] | 9.36
5 | CCN[C@H](CO[C@H]1[C@H](n2nnc(N)n2)C[C@@]23COC[C@]1(C)[C@@H]2CC[C@H]1C3=CC[C@@]2(C)[C@H](C(=O)O)[C@@](C)([C@H](C)C(C)C)CC[C@]12C)C(C)(C)C [Example 97, (1S,4aR,6aS,7R,8R,10aR,10bR,12aR,14R,15R)-14-(5-amino-2H-tetrazol-2-yl)-15-[[(2S)-2-(ethylamino)-3,3-dimethylbutyl]oxy]-8-[(1R)-1,2-dimethylpropyl]-1,6,6a,7,8,9,10,10a,10b,11,12,12a-dodecahydro-1,6a,8,10a-tetramethyl-4H-1,4a-propano-2H-phenanthro[1,2-c]pyran-7-carboxylic acid] | 13.2
6 | CC[C@H](C)[C@@H](CO[C@H]1[C@H](n2nnc(N)n2)C[C@@]23COC[C@]1(C)[C@@H]2CC[C@H]1C3=CC[C@@]2(C)[C@H](C(=O)O)[C@@](C)([C@H](C)C(C)C)CC[C@]12C)N(C)C [Example 101, (1S,4aR,6aS,7R,8R,10aR,10bR,12aR,14R,15R)-14-(5-amino-2H-tetrazol-2-yl)-15-[[(2S,3S)-2-(dimethylamino)-3-methylpentyl]oxy]-8-[(1R)-1,2-dimethylpropyl]-1,6,6a,7,8,9,10,10a,10b,11,12,12a-dodecahydro-1,6a,8,10a-tetramethyl-4H-1,4a-propano-2H-phenanthro[1,2-c]pyran-7-carboxylic acid] | 11.7
7 | CC(C)[C@@H](C)[C@@]1(C)CC[C@]2(C)[C@H]3CC[C@@H]4[C@@]5(COC[C@@]4(C)[C@@H](OCCN)[C@H](n4cnnn4)C5)C3=CC[C@@]2(C)[C@@H]1C(=O)O [Example 104, (1S,4aR,6aS,7R,8R,10aR,10bR,12aR,14R,15R)-15-(2-aminoethoxy)-8-[(1R)-1,2-dimethylpropyl]-14-(1H-tetrazol-1-yl)-1,6,6a,7,8,9,10,10a,10b,11,12,12a-dodecahydro-1,6a,8,10a-tetramethyl-4H-1,4a-propano-2H-phenanthro[1,2-c]pyran-7-carboxylic acid] | 118
8 | CCNC(C)(COC1C(n2ncnn2)CC23COCC1(C)C2CCC1C3=CCC2(C)C(C(=O)O)C(C)(C(C)C(C)C)CCC12C)C(C)C [Example 109, (1S,4aR,6aS,7R,8R,10aR,10bR,12aR,14R,15R)-8-[(1R)-1,2-dimethylpropyl]-15-[[(25)-2-(ethylamino)-2,3-dimethylbutyl]oxy]-14-(2H-tetrazol-2-yl)-1,6,6a,7,8,9,10,10a,10b,11,12,12a-dodecahydro-1,6a,8,10a-tetramethyl-4H-1,4a-propano-2H-phenanthro[1,2-c]pyran-7-carboxylic acid] | 46.4
9 | CN[C@](C)(CO[C@H]1[C@H](n2nnc(N)n2)C[C@@]23COC[C@]1(C)[C@@H]2CC[C@H]1C3=CC[C@@]2(C)[C@H](C(=O)O)[C@@](C)([C@H](C)C(C)C)CC[C@]12C)C(C)(C)C [Example 112, (1S,4aR,6aS,7R,8R,10aR,10bR,12aR,14R,15R)-14-(5-amino-2H-tetrazol-2-yl)-8-[(1R)-1,2-dimethylpropyl]-15-[[(2S)-2,3,3-trimethyl-2-(methylamino)butyl]oxy]-1,6,6a,7,8,9,10,10a,10b,11,12,12a-dodecahydro-1,6a,8,10a-tetramethyl-4H-1,4a-propano-2H-phenanthro[1,2-c]pyran-7-carboxylic acid] | 8.78
10 | CC(C)[C@@H](C)[C@@]1(C)CC[C@]2(C)[C@H]3CC[C@@H]4[C@@]5(COC[C@@]4(C)[C@@H](OCCN(C)C)[C@H](n4nnc(N)n4)C5)C3=CC[C@@]2(C)[C@@H]1C(=O)O [Example 114, (1S,4aR,6aS,7R,8R,10aR,10bR,12aR,14R,15R)-14-(5-amino-2H-tetrazol-2-yl)-15-[2-(dimethylamino)ethoxy]-8-[(1R)-1,2-dimethylpropyl]-1,6,6a,7,8,9,10,10a,10b,11,12,12a-dodecahydro-1,6a,8,10a-tetramethyl-4H-1,4a-propano-2H-phenanthro[1,2-c]pyran-7-carboxylic acid] | 19.1
11 | CCCCCC(C)(CO[C@H]1[C@H](n2nnc(N)n2)C[C@@]23COC[C@]1(C)[C@@H]2CC[C@H]1C3=CC[C@@]2(C)[C@H](C(=O)O)[C@@](C)([C@H](C)C(C)C)CC[C@]12C)NCCC (stereo partly drawn) [Example 120, (1S,4aR,6aS,7R,8R,10aR,10bR,12aR,14R,15R)-14-(5-amino-2H-tetrazol-2-yl)-8-[(1R)-1,2-dimethylpropyl]-15-[[2-methyl-2-(propylamino)heptyl]oxy]-1,6,6a,7,8,9,10,10a,10b,11,12,12a-dodecahydro-1,6a,8,10a-tetramethyl-4H-1,4a-propano-2H-phenanthro[1,2-c]pyran-7-carboxylic acid] | 60.7

Reference: patent US8722727B2, “Antifungal agents” (Seynix, Inc., priority 2008, dated 2014)
